Consider four compounds from patent publication US20230107216A1, “PANTETHEINE DERIVATIVES AND USES THEREOF” (Comet Therapeutics, Inc., priority 2018, published 2023).

Read-outs that look alike come from different tables or passages of the source. Bounds are passed on as bounds.

In data set [1] the test system is Methylmalonic Acidemia (MMA) primary fibroblasts GM01673. In words: Mitochondrial respiration, XFe96 Extracellular Flux Analyzer (OCR/ECAR), MMA fibroblasts GM01673. Format: cell-based. The note with it: Homo sapiens, Fibroblast, read-out: Increase in Maximal Respiratory Capacity AUC. The protocol: The effect of the compounds of the present disclosure on mitochondrial respiration was measured with a XFe96 Extracellular Flux Analyzer (Seahorse Bioscience, Agilent Technologies) and Oxygen consumption Rate (OCR) and Extracellular acidification rate (ECAR) determined.
Cell culture and treatments. Primary adherent fibroblasts were cultured in minimum essential medium (MEM) (Gibco, 25030081) supplemented with 2 mM L-Glutamine (Gibco, 25030081), 15% fetal bovine serum (FBS) (Gibco, 26400044) and 1% penicillin/streptomycin (Gibco, 5140122) at 37° C. and 5% CO2. Cells were collected for either passaging or experiment at ˜70-80% confluence. Cells were obtained by trypsinization and seeded at 20000 cells/well in cell culture microplates (Seahorse Bioscience, 101085-004) and allowed to adhere for 16 hours in culture media.
By profiling different primary cells and/or optimizing their culture media or environmental components one can select cell lines and/or conditions that are appropriate for the biological or disease model. In the present example, 24 hours prior to OCR and ECAR profiling, media was changed to Dulbecco's Modified Eagle Medium (DMEM, Agilent Seahorse 103575-100) with the appropriate supplements for the different primary cells (10 mM glucose, 2 mM L-glutamine, 1 mM pyruvate, 10% FBS; 1 mM glucose, 2 mM L-glutamine, 1 mM pyruvate, 10% FBS; 10 mM glucose, 10% FBS; 5 mM glucose 10% FBS; 1 mM glucose 10% FBS). Cells used in this example were: Propionic Acidemia (PA) (GM00371, GM03590 Coriell Institute for Medical Research, Tsi 6337, Tsi 4626, Tsi 3618 Trans-Hit Bio), Methylmalonic Acidemia (MMA) (GM01673, Coriell Institute for Medical Research, Tsi 5224 Trans-Hit Bio), Branched chain ketoacid dehydrogenase kinase (BCKDK) (GM00612, GM00649 Coriell Institute for Medical Research), Subnormal activation of pyruvate dehydrogenase complex (PDH) (GM01503 Coriell Institute for Medical Research), Very long-chain acyl-CoA dehydrogenase (VLCAD) (GM17475), Leigh Syndrome (LS) (GM03672, GM13411 Coriell Institute for Medical Research), Pyruvate Carboxylase Deficiency (PC) (GM00444 Coriell Institute for Medical Research), Glutaric Acidemia-I (GA) (GM10653), Friedreich's Ataxia (FXN) (GM04078 Coriell Institute for Medical Research, Huntington's disease (HD) (GM21756 Coriell Institute for Medical Research), Ornithine Transcarbamylase Deficiency (OTC) (GM12756 Coriell Institute for Medical Research), Kearns-Sayre Syndrome (KSS) (GM06225 Coriell Institute for Medical Research).
One hour before the assay, the cells were washed with freshly prepared unbuffered serum free-Seahorse XF Assay medium (Seahorse Bioscience, North America, USA, 103575-100) with the same supplements as for the previous 24 hour incubation.
After baseline measurements of OCR, cells were challenged with compounds of the present disclosure at different concentrations (10 to 50 μM) or vehicle (DMSO, 0.1%) and a post-compound baseline was recorded. OCR was measured after sequentially adding to each well 1 μg/ml oligomycin (inhibitor of ATP synthase Sigma-Aldrich, 753531), then maximal OCR was determined with carbonyl cyanide 4-(trifluoromethoxy) phenylhydrazone (FCCP, Sigma-Aldrich, C2920), (uncoupler of oxidative phosphorylation) and 0.5 μM of rotenone (Sigma-Aldrich, R8875) plus antimycin A (Sigma-Aldrich, A8674) (inhibitors of mitochondrial complex I and III) for determination of rotenone-antimycin insensitive respiration together with Hoechst for nuclear staining in situ when normalized to cell counts. After the analysis and nuclear staining, the XFp microplate was transferred to the Cytation 5, and the nuclear images were captured, the individual nuclei were identified and counted by BioTek Gen5 software. Data were expressed as pmol of O2 per minute and normalized by nuclear staining and baselined to pre-compound addition.
Assay conditions were as stated below.
Assay specifics on assay conditions are indicated below when readouts were normalized to cell counts. […]

The test system of data set [2] is Venular Endothelial cells (HUVEC) (4H system). In words: BioMAP 4H system (IL-4 and histamine). Format: cell-based, human. Conditions: Homo sapiens, HUVEC, 24 h; 1 uM; procedure of Example 826; read-out: % decrease in E-Selectin.
In data set [3] the test system is Dermal fibroblasts (HDF3CGF system). Briefly: BioMAP HDF3CGF system (IL-1β, TNFα, IFNγ, EGF, bFGF, PDGF-BB). Format: cell-based, human. The note with it: 10 uM.
For data set [4], the system named is Peripheral blood mononuclear cells co-cultured with venular endothelial cells (HUVEC) (LPS system). Briefly: BioMAP LPS system. In kind it is cell-based, human. Conditions: Homo sapiens, HUVEC, 24 h, procedure of Example 827.
For data set [5], the system named is primary culture of rat embryo mesencephalic cells (microglia, astrocytes and neurons) exposed to LPS. Briefly: Neuroprotective effect on damage induced by LPS on culture of mesencephalic neurons (NO, TNF-α, IL-1β, TH positive neurons). Format: cell-based. Conditions: 50 uM, after 5 days of LPS exposure; for inhibition at 50 µM: Rattus norvegicus, Neuron, 120 h, read-out: % reversion of TH positive neurons. The protocol: Drug preparation. […] The stock solutions will be prepared 1000× the concentration in 100% DMSO. The final concentration of the vehicle (DMSO) is set at 0.1%.
Test animals. Pregnant Wistar rats (Janvier; France) are used for the study. They are group-housed and maintained in a room with controlled temperature (21-22° C.) and a reversed light-dark cycle (12h/12h; lights on: 17:30-05:30; lights off: 05:30-17:30) with food and water available ad libitum.
The protocol is performed in 3 independent cultures. For each culture, each condition is performed in sextuplicate.
Female rat of 15 days gestation is killed by cervical dislocation. Fetuses are removed from the uterus and their brains are harvested and placed in ice-cold medium (Leibovitz's L15 medium, Gibco). Only ventral mesencephalic flexure is used for the cell preparations. The midbrain is dissociated by trypsinization. The reaction is stopped, and the suspension is triturated and centrifuged. The pellet of dissociated cells is resuspended in culture medium consisted of DMEM-F12 (Gibco), containing 10% FBS (ATCC), 10% Horse serum (Gibco) and 2 mM L-glutamine (Gibco). Viable cells are counted and seeded on 96-well plates, precoated with poly-L-lysine. Cells are maintained in a humidified incubator at 37° C. in 5% CO2-95% air atmosphere. Half of the medium is changed on day 2 and day 5.
Treatment. On day 7, culture media are removed and replaced by new medium consisting of DMEM-F12 (Gibco) supplemented with 2% FBS (ATCC), 2% Horse serum (Gibco) and 2 mM L-glutamine (Gibco) and containing vehicle or test substances. After 1-hour exposure, LPS at 10 ng/ml is added and exposure further continued for 24 hours or 5 days period.
Inflammatory response measurement and neuronal death evaluation. NO production is measured in the media 24h and 5 days after LPS exposure using the Griess reagent kit (Molecular Probes). The Griess reagent Assay is a colorimetric reaction assay which measures the conversion of a sulfanilic salt into an azo dye product by nitrite. Visible wavelength absorbance data is collected using a 96-well plate reader at 570 nm (Multiskan EX, Thermo Fisher, France). IL-1β and TNF-α release are measured in the media 24h after LPS exposure using the ELISA development kit (PeproTech). The ELISA plate, previously coated with anti-IL-1β or anti-TNF-αantibody at 1 μg/ml, is incubated 1h with PBS containing 1% of BSA (bovine serum albumin). After washing four times with PBS containing 0.05% of Tween-20, the plate is successively incubated 2h with supernatant, 2h with biotinylated antibody at 0.5 μg/ml in PBS containing 0.1% of BSA and 0.05% of Tween-20, 45 min with Avidin-HRP conjugated at 1/2000 and 30 min with color ABTS substrate (Sigma). Visible wavelength absorbance data is collected using a 96-well plate reader at 405 nm with wavelength correction set at 650 nm (Multiskan EX, Thermo Fisher, France).
Immunodetection of tyrosine hydroxylase positive neurons. On day 12 (5 days after LPS exposure), cultures are fixed 30 min at 4° C. with paraformaldehyde in PBS (4%, Sigma). Then, cells are successively permeabilized with 0.1% Triton X100 for 30 min, saturated with PBS containing 3% of BSA (bovine serum albumin) and are incubated 2h with anti-tyrosine hydroxylase antibody (Sigma, 1:10000; clone TH-2) at 1/10 000 in PBS containing 0.5% of BSA. Cells are washed three times with PBS containing 0.5% of BSA, and they are incubated 1h with goat anti mouse antibody coupled with AF488 (Invitrogen A11001) diluted at 1/1000 in PBS containing 0.5% of BSA. Finally, nuclei are stained with DAPI at 1/1000 in PBS containing 0.5% of BSA. After rinsing with PBS, the plate is visualized and examined with Cell Insight HCS (Thermo Scientific) to determine the number of tyrosine hydroxylase positive cells per well.
Statistical Analysis. The drug-induced effect on NO and cytokines is calculated by setting the response of the LPS-stimulated control as 100%. […]

The test system of data set [6] is Propionic Acidemia (PA) primary fibroblasts GM00371. In words: Mitochondrial respiration, XFe96 Extracellular Flux Analyzer (OCR/ECAR), PA fibroblasts GM00371. Conditions: Homo sapiens, Fibroblast, 50 μM, read-out: Increase in Maximal Respiratory Capacity AUC. Format: cell-based.
For data set [7], the system named is Bronchial epithelial cells (BE3C system). In words: BioMAP BE3C system (IL-1β, TNFα, IFNγ). Format: cell-based, human. The note with it: Homo sapiens, Epithelial cell, 24 h; 10 uM; procedure of Example 831; read-out: % decrease in MMP-1.
The test system of data set [8] is Peripheral blood mononuclear cells co-cultured with B-cells (BT system). Briefly: cells. Conditions: Homo sapiens, 72 h, read-out: % increase in sIL-6.
The subject of another data set is HepG2 cells. In words: Glucose uptake (Glucose Uptake-Glo). The note with it: Homo sapiens, 50 uM, read-out: % increase in Glucose Uptake. Format: cell-based.
The test system of data set [9] is Peripheral blood mononuclear cells co-cultured with B-cells (BT system).
Data set [10] concerns Bronchial epithelial cells co-cultured with dermal fibroblast (BF4T system). In words: BioMAP BF4T system (TNFα and IL-4). The note with it: Homo sapiens, 24 h; 10 uM; procedure of Example 830; read-out: % increase in VCAM-1. In kind it is cell-based, human.
Where [11] appears, read: assay condition A (10 mM glucose, 2 mM L-glutamine, 1 mM pyruvate, 10% FBS).

Turning to `CC(=O)N[C@@H](CC(=O)CC(=O)SCCNC(=O)CCNC(=O)[C@H](O)C(C)(C)CO)C(=O)O` [Compound 447], the activation at 50 µM in data set [1] (setting [11]) was at least 10%.
For `CC(C)(CO)[C@@H](O)C(=O)NCCC(=O)NCCSC(=O)CC(=O)N[C@@H](CCCCN)C(=O)O` [Compound 485], in [1] (setting [11]), the activation at 50 µM was at least 10%.
As to `CC(=O)CC(=O)SCCNC(=O)CCNC(=O)[C@H](O)C(C)(C)COC(=O)O[C@H](CC(=O)[O-])C[N+](C)(C)C` [Compound 185, (3R,9R)-9-hydroxy-8,8-dimethyl-5,10,14,19,21-pentaoxo-3-((trimethylammonio)methyl)-4,6-dioxa-18-thia-11,15-diazadocosanoate], the inhibition at 1 µM in data set [2] was at least 10%; in [4] (1 uM, read-out: % decrease in sPGE2) it was at least 10%. Besides, the “% increase in SRB” value in data set [3] is at least 10%. For the same compound, the activation at 10 µM was at least 10% in data set [3] (Homo sapiens, Fibroblast, 72 h, read-out: % increase in 72 Hour Proliferation); at least 10% in data set [4] (10 uM, read-out: % increase in sTNFα); at least 10% in data set [10]. The inhibition at 10 µM in data set [4] (10 uM, read-out: % decrease in IL-1α) is at least 10%; in data set [7], at least 10%. The “% decrease in NO release relative to LPS alone” value in data set [5] is at least 20%. Moreover, the inhibition at 50 µM in data set [5] (list at threshold 15%) was at least 15%; in data set [5] (list at threshold 50%), at least 50%. In addition, the activation at 50 µM in [6] (assay condition C (10 mM glucose, 10% FBS)) was at least 10%; in the data set on HepG2 cells, at least 30%. Besides, the activation at 1 µM in [8] is at least 10%. Besides, the “% increase in B-cell Proliferation” value in [9] (1 uM, procedure of Example 829) is recorded as at least 10%. In [9] (human, 72 h, 1 µM), the “% increase in PBMC cytotoxicity” value was at least 10%.
For `COC(=O)CC(SCCNC(=O)CCNC(=O)[C@H](O)C(C)(C)COC(=O)CN)C(=O)OC` (stereo partly drawn) [Compound 172], the activation at 10 µM in data set [1] (setting [11]) is at least 10%; in [1] (assay condition D (1 mM glucose, 10% FBS)), at least 10%. Moreover, the activation at 50 µM in data set [6] (setting [11]) was at least 10%.
